Reference: US7666901B2, “Analogs of 17-hydroxywortmannin as PI3K inhibitors” (Wyeth, priority 2004, dated 2010)
Values after ≈ are worked out from the molar mass of the structure shown.

Tests used:
Human TOR = biological target: T1, Human TOR (Homo sapiens, UniProt P42345); test: Human TOR (mTOR) kinase assay, DELFIA format; format: biochemical
T1 construct: FLAG
Procedure: The PI3K/AKT/TOR pathway is critical for cell proliferation, growth, survival, and angiogensis. Accordingly, compounds of the present invention may also be useful to inhibit TOR activity. Similar in vivo and in vitro assays to those described above with reference to PI3K can be used to determine the minimum concentration of compound sufficient to inhibit TOR. A human TOR assay and a Rat1-IGF1 assay as described in Examples 67 and 68, respectively was performed with some embodiments of the invention. The results of these assays are shown below in Tables 1 and 2.
Human TOR assays (See Toral-Barza, et al. Biochem Biophys. Res. Commun. 2005 Jun. 24; 332(1):304-10) with purified enzyme are performed in 96-well plates by DELFIA format as follows. Enzymes are first diluted in kinase assay buffer (10 mM Hepes (pH 7.4), 50 mM NaCl, 50 mM b-glycerophosphate, 10 mM MnCl2, 0.5 mM DTT, 0.25 mM microcystin LR, and […] BSA). To each well, 12 mL of the diluted enzyme is mixed briefly with 0.5 mL test inhibitor or control vehicle dimethylsulfoxide (DMSO). The kinase reaction is initiated by adding 12.5 mL kinase assay buffer containing ATP and His6-S6K to give a final reaction volume of 25 mL containing 800 ng/mL FLAG-TOR, […] ATP and […] His6-S6K. The reaction plate is incubated for 2 hours (linear at 1-6 hours) at room temperature with gentle shaking and then terminated by adding 25 mL Stop buffer (20 mM Hepes (pH 7.4), 20 mM EDTA, 20 mM EGTA). The DELFIA detection of the phosphorylated (Thr-389) His6-S6K is performed at room temperature using a monoclonal anti-P(T389)-p70S6K antibody (1A5, Cell Signaling) labeled with Europium-N1-ITC (Eu) (10.4 Eu per antibody, PerkinElmer). The DELFIA Assay buffer and Enhancement solution can be purchased from PerkinElmer. 45 mL of the terminated kinase reaction mixture is transferred to a MaxiSorp plate (Nunc) containing 55 mL PBS. The His6-S6K is allowed to attach for 2 hours after which the wells are aspirated and washed once with PBS. 100 mL of DELFIA Assay buffer with 40 ng/mL Eu-P(T389)-S6K antibody is added. The antibody binding is continued for 1 hour with gentle agitation. The wells are then aspirated and washed 4 times with PBS containing 0.05% Tween-20 (PBST). […] of DELFIA Enhancement solution is added to each well and the plates are read in a PerkinElmer Victor model plate reader. Data obtained is used to calculate enzymatic activity and enzyme inhibition by potential inhibitors.

PI3K = test system: T2, PI3K; test: Fluorescence polarization assay for PI3K; format: biochemical; details: for PI3K FP IC50: Table 1
T2 construct: PI3K FP IC50
Procedure: This assay is used to determine the IC50 of compounds of the present invention as it identifies inhibitors of PI3 kinase by measuring inhibition.
The assay is run by placing 5 μL of diluted enzyme per well, then 5 μL of diluted compound (or 9.5 μL enzyme then 0.5 μL compound in DMSO) is added and mixed. Then, 10 μL substrate is added to start the reaction. The samples are incubated 30-60 minutes, then the reaction is stopped by adding 20 μL stop/detector mix.
PI3K is diluted with reaction buffer (e.g., 5 μL or 7.5 μL PI3K into 620 μL reaction buffer), and 5 μL of diluted enzyme is used per well. 5 μL reaction buffer or drug diluted in buffer (e.g., 4 μL/100 so final DMSO is 1% in reaction) is added to each. The samples are mixed by pipetting up and down. Alternatively, the enzyme can be diluted to 1215 μL. In this case 9.8 μL is added per well and 0.2 μL compound is added in DMSO.
To prepare 1 mL of substrate solution, 955 μL reaction buffer, 40 μL PIP2, and 2.5 μL ATP are mixed. 10 μL of substrate is added to each well to start the reaction.
Stop/detector mix is prepared by mixing 4 μL Red detector and 1.6 μL or 2.0 μL GST-GRP with 1 mL Stop buffer, which results in 10 nM probe and 70 nM GST-GRP). 20 μL of the stop/detector mix is added to each well to stop the reaction. The plates are read after 30-90 minutes keeping the red probe solutions dark.
For the zero time point, stop/detector mix is added to the enzyme just before adding substrate. For an extra control, stop/detector mix is added to buffer (no enzyme) and substrate or to just buffer (no substrate).
The recommended reaction has 0.06 μL per 20 μL (0.015 μg/20 μL) or 0.01125 μg/15 μL or 0.75 μg/mL.
Plates are read on machines with filters for Tamra. The units are mP with no enzyme controls reading app 190-220 mP units. Fully active enzyme reduces fluorescence polarization down to 70-100 mP after 30 minutes. An active cpd raises the mP values halfway to control or to 120-150 mP units.

[1] = test system: LNCaP (human prostate carcinoma); test: Cell proliferation (MTS) assay, LNCaP; format: cell-based; details: Homo sapiens, LNCaP, 72 h, three days treatment
Procedure: (§1) Results of cell proliferation assays for exemplary compounds are shown below in Tables 1 and 2. Cell lines LNCaP (human prostate carcinoma), MDA468 (human breast cancer cell), MDA435 (human breast adenocarcinoma), and DU145 (human prostate carcinoma[…]) were purchased from American Type Culture Collection (ATCC) (Rockville, Md.). Cells were cultured in RPMI Medium 1640 containing 10% fetal bovine serum (FBS) in a 37° C. incubator containing 5% CO2. All cell culture reagents were purchased from Gibco-BRL (Grand Island, N.Y.). Cells were plated in 96-well culture plates at about 3000 cells per well. One day following plating, compounds or vehicle controls (buffer only) were added to cells. Proliferation assays were performed three days post initiation of treatment.
(§2) For a non-radioactive cell proliferation assay, viable cell densities are determined by measuring metabolic conversion (by viable cells) of the dye MTS tatrazolium dye, a cell proliferation assay known by one of skill in the art (MTS assay), a previously established cell proliferation assay. The assay is performed using an assay kit (Promega Corp., Madison, Wis.). The assay plates are incubated for 1-2 hours, and the results are read in a 96-well format plate reader by measuring absorbance at 490 nm. Effect of each compound is calculated as a percentage of control cell growth obtained from vehicle-treated cells grown in the same plate.

[2] = test system: MDA468 (human breast cancer cell); test: Cell proliferation (MTS) assay, MDA468; format: cell-based; details: Homo sapiens, 72 h, three days treatment
Procedure: as §1, §2

[3] = test system: MDA435 (human breast adenocarcinoma); test: Cell proliferation (MTS) assay, MDA435; format: cell-based; details: Homo sapiens, MDA435, 72 h, Table 1; three days treatment
Procedure: as §1, §2

[4] = test system: DU145 (human prostate carcinoma/lymphocytic leukemia); test: Cell proliferation (MTS) assay, DU145; format: cell-based; details: Homo sapiens, DU-145, 72 h, Table 1; three days treatment
Procedure: as §1, §2

IC50 (Human TOR; Table 1) [nM]	PI3K FP IC50 (PI3K) [µg/mL]	IC50 ([1]; Table 1) [µg/mL]	IC50 ([2]; Table 1) [µg/mL]	IC50 [3] [µg/mL]	IC50 [4] [µg/mL]	Molecule	other results
1520	0.044	0.8 (≈ 1.46 µM)	4.25 (≈ 7.77 µM)			CCC(=O)OC1CC2(C)C(O)CCC2C2=C1C1(C)C(=C(O)C2=O)C(=CN(C)CCN(C)C)C(=O)OC1COC (stereo not shown) [Compound 49, Propionic acid 4-{[(2-dimethylamino-ethyl)-methyl-amino]-methylene}-6,17-dihydroxy-1-methoxymethyl-10,13-dimethyl-3,7-dioxo-1,3,4,7,10,11,12,13,14,15,16,17-dodecahydro-2-oxa-cyclopenta[a]phenanthren-11-yl ester]	
2500	0.043	0.25 (≈ 0.48 µM)	3.85 (≈ 7.39 µM)			CCCCSC=C1C(=O)OC(COC)C2(C)C1=C(O)C(=O)C1=C2C(OC(C)=O)CC2(C)C(O)CCC12 (stereo not shown) [Compound 52, Acetic acid 4-butylsulfanylmethylene-6,17-dihydroxy-1-methoxymethyl-10,13-dimethyl-3,7-dioxo-1,3,4,7,10,11,12,13,14,15,16,17-dodecahydro-2-oxa-cyclopenta[a]phenanthren-11-yl ester]	
4600	0.027	0.42 (≈ 0.69 µM)	3.4 (≈ 5.59 µM)			COCC1OC(=O)C(=CN(CCN(C)C)Cc2ccccc2)C2=C(O)C(=O)C3=C(C(OC(C)=O)CC4(C)C(O)CCC34)C21C (stereo not shown) [Compound 43, Acetic acid 4-{[benzyl-(2-dimethylamino-ethyl)-amino]-methylene}-6,17-dihydroxy-1-methoxymethyl-10,13-dimethyl-3,7-dioxo-1,3,4,7,10,11,12,13,14,15,16,17-dodecahydro-2-oxa-cyclopenta[a]phenanthren-11-yl ester]	
						COC[C@H]1OC(=O)/C(=C/N(C)CCCN(C)C)C2=C(O)C(=O)C3=C([C@H](O)C[C@@]4(C)C3CC[C@@H]4O)[C@]21C (stereo partly drawn) [Compound 60, (1E,4S,4aR,5R,6aS,7S)-1-{[[3-(dimethylamino)propyl](methyl)amino]methylene}-5,7,11-trihydroxy-4-(methoxymethyl)-4a,6a-dimethyl-4a,5,6,6a,7,8,9,9a-octahydroindeno[4,5-h]isochromene-2,10(1H,4H)-dione]	IC50 (Human TOR; Table 2): 396 nM; IC50 (PI3K; Table 2): 7 nM; IC50 ([1]; Table 2): 0.33 µg/mL (≈ 0.654 µM); IC50 ([2]; Table 2): 2 µg/mL (≈ 3.96 µM)
		0.075	1	6	2	CCN(/C=C1/C(=O)O[C@H](COC)[C@@]2(C)C1=C(O)C(=O)C1=C2[C@H](OC(C)=O)C[C@]2(C)[C@@H](O)CC[C@@H]12)CC [Compound 1, (1E,4S,4aR,5R,6aS,7S,9aR)-1-[(diethylamino)methylene]-7,11-dihydroxy-4-(methoxymethyl)-4a,6a-dimethyl-2,10-dioxo-1,2,4,4a,5,6,6a,7,8,9,9a,10-dodecahydroindeno[4,5-h]isochromen-5-yl acetate]	
1480	0.014	0.75 (≈ 1.3 µM)	4.1 (≈ 7.13 µM)			CCN(C=C1C(=O)OC(COC)C2(C)C1=C(O)C(=O)C1=C2C(OC(C)=O)CC2(C)C(O)CCC12)CCN(CC)CC (stereo not shown) [Compound 42, Acetic acid 4-{[(2-diethylamino-ethyl)-ethyl-amino]-methylene}-6,17-dihydroxy-1-methoxymethyl-10,13-dimethyl-3,7-dioxo-1,3,4,7,10,11,12,13,14,15,16,17-dodecahydro-2-oxa-cyclopenta[a]phenanthren-11-yl ester]	
> 19900		0.1	1	6	1.4	COC[C@H]1OC(=O)/C(=C/N2CCCC2)C2=C(O)C(=O)C3=C([C@H](OC(C)=O)C[C@]4(C)[C@@H](O)CC[C@@H]34)[C@]21C [Compound 2, (1E,4S,4aR,5R,6aS,7S,9aR)-7,11-dihydroxy-4-(methoxymethyl)-4a,6a-dimethyl-2,10-dioxo-1-(Pyrrolidin-1-ylmethylene)-1,2,4,4a,5,6,6a,7,8,9,9a,10-dodecahydroindeno[4,5-h]isochromen-5-yl acetate]	
4700		0.11	0.4	6	1.5	CCN(/C=C1/C(=O)O[C@H](COC)[C@@]2(C)C1=C(O)C(=O)C1=C2[C@H](OC(C)=O)C[C@@]2(C)C1CC[C@@H]2OC=O)CC (stereo partly drawn) [Compound 18, (1E,4S,4aR,5R,6aS,7S)-1-[(diethylamino)methylene]-7-(formyloxy)-11-hydroxy-4-(methoxymethyl)-4a,6a-dimethyl-2,10-dioxo-1,2,4,4a,5,6,6a,7,8,9,9a,10-dodecahydroindeno[4,5-h]isochromen-5-yl acetate]	
539						CCCC(=O)OC1CC2(C)C(O)CCC2C2=C1C1(C)C(=C(O)C2=O)C(=CN(C)CC(C)N(C)C)C(=O)OC1COC (stereo not shown) [Compound 63, Butanoic acid 4-{[(2-dimethylamino-propyl)-methyl-amino]-methylene}-6,17-dihydroxy-1-methoxymethyl-10,13-dimethyl-3,7-dioxo-1,3,4,7,10,11,12,13,14,15,16,17-dodecahydro-2-oxa-cyclopenta[a]phenanthren-11-yl ester]	

Molecule	IC50 (Human TOR; Table 1) [nM]	PI3K FP IC50 (PI3K) [µg/mL]	IC50 ([1]; Table 1) [µg/mL]	IC50 ([2]; Table 1) [µg/mL]	IC50 [3] [µg/mL]	IC50 [4] [µg/mL]	other results
(1E,4S,4aR,5R,6aS,7S,9aR)-1-({4-[2-(2,5-dioxo-2,5-dihydro-1H-pyrrol-1-yl)ethyl]piperazin-1-yl}methylene)-7,11-dihydroxy-4-(methoxymethyl)-4a,6a-dimethyl-2,10-dioxo-1,2,4,4a,5,6,6a,7,8,9,9a,10-dodecahydroindeno[4,5-h]isochromen-5-yl acetate [Compound 65]		1.55					TOR IC50 (Human TOR; Table 1): 0.58 µg/mL
